Where “and” joins values, the source holds several entries; their conditions need not be identical. Identical values can stand only once.
Assay: Anticancer human tumor 997537-175-T-J1-PDC patient-derived colon adenocarcinoma cell line growth inhibition [POLQ]
Details: 997537-175-T-J1-PDC complex spheroid viability, combination with POLQ inhibitors; for viability, T/C: stronger effect = lower value
Description: Multicellular complex tumor spheroid response to Polymerase (POL) inhibitors (novobiocin, ART-558, RP6685) in combination with a variety of drugs and investigational agents in selected tumor cell lines
The POL inhibitors (novobiocin, ART-558, and RP6685) were evaluated both individually and in combination with standard of care and investigational anticancer small molecules within a complex spheroid model of solid tumors. . Complex spheroids include a stromal component modeled by human endothelial cells (HUVEC) and fibroblasts modeled by human mesenchymal stem cells (MSCs). The concentration ranges selected for each drug and investigational agent were based upon clinically achievable concentrations if the clinical Cmax of the agent was known.
Compounds. The drugs and investigational agents: novobiocin (NSC847541), ART-558 (NSC835418), RP-6685 (NSC848927), peposertib (NSC802822), ceralasertib (NSC780249), elimusertib (NSC800525), camonsertib (NSC841442), AZD-1390 (NSC803789), olaparib (NSC753686), talazoparib (NSC767125), rucaparib (NSC756644), sotorasib (NSC818433), MRTX-1133 (NSC836407), SN-38 (NSC673596), topotecan (NSC609699), epotoside (NSC141540), doxorubicin (NSC123127), gemcitabine (NSC613327), 5-fluorouracil (NSC19893), paclitaxel (NSC125973), vemurafenib (NSC761431), MSA-2 (NSC828583), SN-011 (NSC837082), adavosertib (NSC754352), prexasertib (NSC758257), carboplatin (NSC241240) and oxaliplatin (NSC266046), were obtained from the National Cancer Institute (NCI) Developmental Therapeutics Program Chemical Repository (21). The FDA-approved anticancer drug set is available from the Developmental Therapeutics Program at https://dtp.cancer.gov/organization/dscb/obtaining/. […] The stock solutions were prepared in dimethyl sulfoxide (DMSO, Sigma-Aldrich, St. Louis, MO, cat. D2650), except for the platinum compounds which were prepared in saline (Quality Biological, Gaithersburg, MD, cat. 114-055-101), at 800-fold the tested concentration and stored at -70 degrees C prior to their use. All drugs and investigational agents were tested over a range starting from a high concentration at or near the clinical Cmax and decreasing in half-log increments. If the clinical Cmax for an agent had not been determined, the highest concentration tested was 10 microM, except for SN-38, which was tested at a high concentration of 1 microM.
Cell Culture. All cells were maintained in an incubator at 37 degrees C and 5% CO2 with 95% humidity. The PDC lines were cultured according to standard operating procedures established by the NCI PDMR (https://pdmr.cancer.gov). Table 3 of the manuscript, lists the cell lines along with the number of the three cell types plated to form the mct-spheroids and media for tumor cell growth. After thawing, all PDC lines, except 997537-175-T-J1-PDC and 415267-285-R-J2-PDC, were cultured in Matrigel-coated flasks prepared with a working solution of 1X Ham's F-12 nutrient mix, without supplementation (Thermo Fisher Scientific, cat. 11765054), 100 U/mL penicillin-streptomycin (Thermo Fisher Scientific, cat. 15140122), and 2.5% Matrigel (Corning Inc., Corning, NY, cat. 354248) for the first three passages. The two PDC lines 997537-175-T-J1-PDC and 415267-285-R-J2-PDC were cultured on uncoated flasks. The 857933-349-R-J2-PDC line was cultured in 6C/Colon 1B media containing advanced DMEM/F-12 (Thermo Fisher Scientific, cat. 12634028), 10 mM HEPES (Thermo Fisher Scientific, cat. 15630080), 1X GlutaMAX supplement (Thermo Fisher Scientific, cat. 35050061), 0.1 mg/mL primocin (InvivoGen, San Diego, CA, cat. ant-pm-2), 10% defined fetal bovine serum, heat inactivated (HyClone Laboratories Inc., Logan, UT, cat. SH30070.03HI), 50% L-WRN conditioned media (ATCC, cat. CRL-3276), 1.25 mM N-Acetyl-L-cysteine (Sigma-Aldrich, cat. A9165), 10 mM nicotinamide (Sigma-Aldrich, cat. N0636), 1X B-27 supplement (Thermo Fisher Scientific, cat. 17504044), 1X N-2 supplement (Thermo Fisher Scientific, cat. […]
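Also: luminescence signal used as a surrogate for viable cells; spheroids exposed to drugs for seven days before readout.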

COc1cccc(OCCCN)c1-c1cc(Nc2cnc(C#N)cn2)n[nH]1 + COC1C(OC(N)=O)C(O)C(Oc2ccc3c(O)c(NC(=O)c4ccc(O)c(CC=C(C)C)c4)c(=O)oc3c2C)OC1(C)C
IC50 (curve of first compound, second compound 0.0316 µM): 46.8 nM | IC50 (curve of first compound, second compound 0.1 µM): 121 nM | IC50 (curve of first compound, second compound 0.316 µM): 77.8 nM | IC50 (curve of first compound, second compound 1 µM): 32.4 nM | IC50 (curve of first compound, second compound 3.16 µM): 57.5 nM | IC50 (curve of first compound, second compound 10 µM): 59.9 nM | viability, T/C (second compound 0.0316 µM, first compound 0.00316 µM): 100% | viability, T/C (second compound 0.0316 µM, first compound 0.01 µM): 95.6% | viability, T/C (second compound 0.0316 µM, first compound 0.0316 µM): 59.9% | viability, T/C (second compound 0.0316 µM, first compound 0.1 µM): 28.1% | viability, T/C (second compound 0.0316 µM, first compound 0.316 µM): 33.6% | viability, T/C (second compound 0.0316 µM, first compound 1 µM): 30.7% | viability, T/C (second compound 0.1 µM, first compound 0.00316 µM): 106% | viability, T/C (second compound 0.1 µM, first compound 0.01 µM): 64.9% | viability, T/C (second compound 0.1 µM, first compound 0.0316 µM): 76.8% | viability, T/C (second compound 0.1 µM, first compound 0.1 µM): 43.2% | viability, T/C (second compound 0.1 µM, first compound 0.316 µM): 51.6% | viability, T/C (second compound 0.1 µM, first compound 1 µM): 17% | viability, T/C (second compound 0.316 µM, first compound 0.00316 µM): 107% | viability, T/C (second compound 0.316 µM, first compound 0.01 µM): 95% | viability, T/C (second compound 0.316 µM, first compound 0.0316 µM): 63.8% | viability, T/C (second compound 0.316 µM, first compound 0.1 µM): 55.3% | viability, T/C (second compound 0.316 µM, first compound 0.316 µM): 16.9% | viability, T/C (second compound 0.316 µM, first compound 1 µM): 30.2% | viability, T/C (second compound 1 µM, first compound 0.00316 µM): 105% | viability, T/C (second compound 1 µM, first compound 0.01 µM): 88% | viability, T/C (second compound 1 µM, first compound 0.0316 µM): 52.2% | viability, T/C (second compound 1 µM, first compound 0.1 µM): 24.1% | viability, T/C (second compound 1 µM, first compound 0.316 µM): 23.2% | viability, T/C (second compound 1 µM, first compound 1 µM): 24.4% | viability, T/C (second compound 3.16 µM, first compound 0.00316 µM): 104% | viability, T/C (second compound 3.16 µM, first compound 0.01 µM): 80.7% | viability, T/C (second compound 3.16 µM, first compound 0.0316 µM): 55.8% | viability, T/C (second compound 3.16 µM, first compound 0.1 µM): 48.7% | viability, T/C (second compound 3.16 µM, first compound 0.316 µM): 28.6% | viability, T/C (second compound 3.16 µM, first compound 1 µM): 47.1% | viability, T/C (second compound 10 µM, first compound 0.00316 µM): 95.2% | viability, T/C (second compound 10 µM, first compound 0.01 µM): 79.8% | viability, T/C (second compound 10 µM, first compound 0.0316 µM): 73.1% | viability, T/C (second compound 10 µM, first compound 0.1 µM): 31.4% | viability, T/C (second compound 10 µM, first compound 0.316 µM): 24.9% | viability, T/C (second compound 10 µM, first compound 1 µM): 28%

Cn1ncnc1[C@H]1c2n[nH]c(=O)c3cc(F)cc(c23)N[C@@H]1c1ccc(F)cc1
viability, T/C (compound 0.000316 µM): 93.6% and 104% and 95.7% | viability, T/C (compound 0.001 µM): 114% and 96.4% and 80.4% | viability, T/C (compound 0.00316 µM): 80.6% and 115% and 106% | viability, T/C (compound 0.01 µM): 110% and 98.3% and 88.3% | viability, T/C (compound 0.0316 µM): 104% and 106% and 100% | viability, T/C (compound 0.1 µM): 94.7% and 98.2% and 90% | IC50 (curve of compound): > 100 nM

O=c1[nH]cc(F)c(=O)[nH]1
viability, T/C (compound 0.0316 µM): 86.3% and 95% and 102% | viability, T/C (compound 0.1 µM): 99.9% and 91.8% and 89.1% | viability, T/C (compound 0.316 µM): 108% and 90% and 106% | viability, T/C (compound 1 µM): 92.9% and 96.2% and 106% | viability, T/C (compound 3.16 µM): 102% and 92% and 105% | viability, T/C (compound 10 µM): 83.8% and 76.2% and 81.4% | IC50 (curve of compound): > 10000 nM

CCc1cc2c(N3CCc4c(cc(Cn5ccnc5)cc4-c4cn(C)nc4C(F)(F)F)C3=O)cc(C)nc2c(OC)n1
viability, T/C (compound 0.0316 µM): 90.5% and 98.7% and 107% | viability, T/C (compound 0.1 µM): 95.7% and 82% and 107% | viability, T/C (compound 0.316 µM): 90.7% and 71.5% and 94.3% | viability, T/C (compound 1 µM): 78.7% and 91.3% and 92.2% | viability, T/C (compound 3.16 µM): 69.9% and 86.2% and 67.7% | viability, T/C (compound 10 µM): 58% and 61.9% and 41.5% | IC50 (curve of compound): > 10000 nM and 6970 nM

COc1cc2cc(C(=O)CCC(=O)O)sc2cc1OC
viability, T/C (compound 0.0316 µM): 102% and 105% and 95.7% | viability, T/C (compound 0.1 µM): 99% and 93.1% and 94.9% | viability, T/C (compound 0.316 µM): 85.6% and 113% and 104% | viability, T/C (compound 1 µM): 107% and 89.6% and 100% | viability, T/C (compound 3.16 µM): 106% and 100% and 91.6% | viability, T/C (compound 10 µM): 98.2% and 83.3% and 99.8% | IC50 (curve of compound): > 10000 nM
